Values joined by “and” are separate entries in the source; they are usually repeats but may differ in a detail not shown here. Equal entries are not always repeated.
What was measured:
[1] = Stability/release in cell culture medium DMEM (10% FBS); assay type: in vitro ADME; conditions: 37 °C; for half-life: bovine, DMEM plus 10% FBS (cell culture medium), read-out: Half-life t1/2 (converted)
[2] = PAMPA assay, gastrointestinal (GI) membrane; assay type: in vitro ADME; conditions: four hours; for Papp at 4 h: pH 7.4, room temperature, read-out: Apparent permeability Papp; for Membrane retention MR: room temperature
Procedure: (§1) After being first dissolved in DMSO, the compounds were diluted 1:1 v/v using phosphate buffer (PBS 10 mM, pH 7.4). […] The gastrointestinal (GI) and blood–brain barrier (BBB) phospholipidic bilayers were mimicked by covering each well of the filter plate with either a 10%w/v CHCl3/dodecane brain polar lipid solution or a 1%w/v L-α-phosphatidylcholine solution (PC) in dodecane. After placing a DMSO/PBS 1:1v/v combination solution in the acceptor plate, the sandwich was gently shaken and incubated at room temperature for four hours. Samples were collected from the upper and bottom plates at the end time point, and the LC-UV/MS method was used for analysis. As previously reported, the apparent permeability (Papp cm/s × 10^−6) was quantified.

[3] = in vitro; conditions: PAMPA, pH 7.4
Procedure: as §1

[4] = test system: U251 glioblastoma cell line; assay: 2D cell viability assay (PrestoBlue), U251; assay type: cell-based; conditions: Homo sapiens, U-251, 72 h, U251 2D culture
Procedure: (§2) The human glioblastoma cell line U87 MG (U87) was originally isolated from a patient with a malignant glioma (ECACC). The human glioblastoma cell line U251 MG (U251) was derived from a patient with a malignant glioblastoma (ECACC). DMEM high-glucose growth medium (Euroclone, Milan, Italy), supplemented with 10% FBS (Euroclone), 200 mM L-glutamine (Euroclone), 100 IU/mL penicillin, and 100 µg/mL streptomycin (Euroclone) comprised the culture medium used for cell propagation at a controlled temperature and atmosphere, at 37 °C, […], and 5% CO2. Cell lines underwent regular testing for mycoplasma using the PCR method and identity verification was performed using DNA profiling.
(§3) For the treatment of 2D cultures, U87 and U251 cell lines were initially seeded at a density of 2.5 × 10^4 cells/mL in a 24 multiwell with a complete DMEM high-glucose growth medium. The viability test was started 24 h after cell plating and performed for 72 h. According to the experimental plan, the tests were performed in the presence of a complete DMEM high-glucose growth medium or, to avoid the serum-dependent degradation of prodrug, in an FBS-free DMEM high-glucose growth medium that was supplemented with 200 mM L-glutamine, 100 IU/mL penicillin, and 100 µg/mL streptomycin. Cell viability in 2D and 3D models was assessed using the cell-permeable resazurin-based solution PrestoBlue (Thermo Fisher, Waltham, MA, USA). After incubating the cells in a 1:10 ratio with the colorimetric reagent for two hours in the dark, the spectrophotometer readings at 570 and 600 nm were utilized as a relative indicator for cell viability.
(§4) Data were imported into Excel or GraphPad Prism software (version 6.01) and elaborated as the mean ± standard deviation (SD) of at least three independent experiments. The calculation of IC50 values with 95% confidence intervals was performed in GraphPad Prism software using a parameter nonlinear fit of the log-dose vs. response elaboration of data. The p value of the log-dose vs. response was calculated with a two-tailed Mann–Whitney test for unpaired data. The statistical significance between two series of measures, including stability and PAMPA (both GI and BBB) experiments, was calculated with the parametric Student t test, considering a significant p value lower than 0.05.

[5] = test system: U87 glioblastoma cell line; assay: 2D cell viability assay (PrestoBlue), U87; assay type: cell-based; conditions: Homo sapiens, 72 h, U87 2D culture
Procedure: as §2, §3, §4

[6] = test system: U251 3D-bioprinted structures; assay: Viability assay in 3D-bioprinted U251 cell model (PrestoBlue); assay type: cell-based; conditions: Homo sapiens, U-251, 72 h, bioprinted U251 3D model
Procedure: A solution of 2% alginate and 8% gelatin (bio-ink) made up the hydrogel utilized for bioprinting. After 15 min of UV light exposure, the powders were dissolved in sterile DPBS in a magnetic stirrer set at 50 °C with laminar flow. After being made, bioink was put in sterile syringes and kept at 4 °C until it was needed. Bioink had been equilibrated at 37 °C prior to the bioprinting process. After that, 2.7 mL of bioink was added to 20 × 10^6 cells that had been resuspended in 300 µL of growth media. Lastly, a disposable cartridge containing a cell/hydrogel suspension was equilibrated in a temperature-controlled printhead for 30 min at 29 °C. The BIO-X bioprinter (Cellink, Gothenburg, Sweden) was used to print in a 12-well plate at a speed of 5 mm/s and a dispensing pressure of 50 kPa, while the temperature was adjusted to 18 °C. Before adding culture media, three-dimensional constructs were crosslinked using CaCl2 for ten minutes and BaCl2 for three minutes. After 8 days, 3D structures, after evaluating cell viability, were treated for 72 h with SI306 and SI306-PD2 at selected concentrations and in different conditions: in complete DMEM high-glucose growth medium and DMEM-high glucose growth medium without FBS (w/o). Fiji ImageJ software (version 2.16.0/1.54p, https://imagej.net/software/fiji/downloads, accessed on 20 May 2025) was used to perform measurements of 3D models’ diameters on images acquired using phase contrast microscopy. A hemocytometer was used to set a scale for normalized measures and to convert real optic distance in pixels. At least five different optical fields were acquired, and the diameter was calculated for at least 100 different cell aggregates in each experimental point.
For the treatment of 2D cultures, U87 and U251 cell lines were initially seeded at a density of 2.5 × 10^4 cells/mL in a 24 multiwell with a complete DMEM high-glucose growth medium. […] Cell viability in 2D and 3D models was assessed using the cell-permeable resazurin-based solution PrestoBlue (Thermo Fisher, Waltham, MA, USA). After incubating the cells in a 1:10 ratio with the colorimetric reagent for two hours in the dark, the spectrophotometer readings at 570 and 600 nm were utilized as a relative indicator for cell viability.
Data were imported into Excel or GraphPad Prism software (version 6.01) and elaborated as the mean ± standard deviation (SD) of at least three independent experiments. […] The p value of the log-dose vs. response was calculated with a two-tailed Mann–Whitney test for unpaired data. The statistical significance between two series of measures, including stability and PAMPA (both GI and BBB) experiments, was calculated with the parametric Student t test, considering a significant p value lower than 0.05.

[7] = Stability/release in fetal bovine serum (FBS); conditions: for Stability (% unmodified compound): FBS, 37 °C; for half-life: bovine, fetal bovine serum (absolute FBS), pH 7.4

| SMILES | Stability (% unmodified compound) ([1]; time 0 h) [%] | Stability (% unmodified compound) ([1]; time 0.083 h) [%] | Stability (% unmodified compound) ([1]; time 0.25 h) [%] | Stability (% unmodified compound) ([1]; time 0.5 h) [%] | Stability (% unmodified compound) ([1]; time 1 h) | Stability (% unmodified compound) ([1]; time 2 h) [%] | Stability (% unmodified compound) ([1]; time 4 h) [%] | Stability (% unmodified compound) ([1]; time 24 h) | half-life [1] [h] | Papp at 4 h [2] [×10⁻⁶ cm/s] | Membrane retention MR [2] [%] | Papp at 4 h [3] [×10⁻⁶ cm/s] | IC50 ([4]; 10% FBS-DMEM) [nM] | IC50 ([4]; FBS-free DMEM (w/o)) [nM] | IC50 ([5]; 10% FBS-DMEM) [nM] | IC50 ([5]; FBS-free DMEM (w/o)) [nM] | IC50 ([6]; 10% FBS-DMEM) [nM] | IC50 ([6]; FBS-free DMEM (w/o)) [nM] | Stability (% unmodified compound) ([7]; time 0 h) [%] | Stability (% unmodified compound) ([7]; time 0.083 h) [%] | further results |
| --- | --- | --- | --- | --- | --- | --- | --- | --- | --- | --- | --- | --- | --- | --- | --- | --- | --- | --- | --- | --- | --- |
| ClC(Cn1ncc2c(Nc3cccc(Br)c3)nc(SCCN3CCOCC3)nc21)c1ccccc1 (stereo not shown) [SI306, N-(3-bromophenyl)-1-(2-chloro-2-phenylethyl)-6-((2-morpholinoethyl)thio)-1H-pyrazolo[3,4-d]pyrimidin-4-amine] | 100.11 ± 0.91 | 101.97 ± 2.32 | 103.96 ± 1.68 | 99.17 ± 1.10 | 98.52 ± 3.69% | 98.64 ± 1.79 | 93.56 ± 1.79 | 87.39% and 87.39 ± 0.41 % | > 100 | 5.93 ± 0.38 | 60.09 ± 3.38 | 8.44 ± 1.03 | 2620 | 230 | 3070 | 270 | 14400 | 11600 | 100.24 ± 2.48 | 99.67 ± 0.21 | Stability (% unmodified compound) ([1]; time 6 h): 92.30 ± 0.84 %; Stability (% unmodified compound) ([7]; time 0.25 h): 98.42 ± 1.19%; Stability (% unmodified compound) ([7]; time 0.5 h): 98.49 ± 2.18%; Stability (% unmodified compound) ([7]; time 1 h): 97.91 ± 1.79%; Stability (% unmodified compound) ([7]; time 2 h): 93.95 ± 2.42 %; Stability (% unmodified compound) ([7]; time 4 h): 90.92 ± 2.68 %; Stability (% unmodified compound) ([7]; time 6 h): 90.51 ± 3.24 %; Stability (% unmodified compound) ([7]; time 24 h): 90.02% and 90.02 ± 2.28 %; half-life [7]: > 100 h |
| O=C(OCCOCCO)N(c1cccc(Br)c1)c1nc(SCCN2CCOCC2)nc2c1cnn2CC(Cl)c1ccccc1 (stereo not shown) [SI306-PD2, 2-(2-Hydroxyethoxy)ethyl (3-Bromophenyl)(1-(2-chloro-2-phenylethyl)-6-((2-morpholinoethyl)thio)-1H-pyrazolo[3,4-d]pyrimidin-4-yl)carbamate] | 100.02 ± 0.80 | 100.22 ± 0.10 | 103.59 ± 2.97 | 98.01 ± 3.40 | 91.48% and 91.48 ± 0.86% | 85.45 ± 3.20 | 81.41 ± 3.94 | 40.07% and 40.07 ± 1.70% | 18.1 | 18.4 ± 2.32 | 5.26 ± 2.70 | 19.5 ± 0.46 | 1290 | 90 | 1620 | 290 | 10000 | 5110 | 100.06 ± 1.13 | 93.64 ± 2.06 | Stability (% unmodified compound) ([7]; time 0.25 h): 92.56 ± 3.74%; Stability (% unmodified compound) ([7]; time 0.5 h): 89.39 ± 2.87%; Stability (% unmodified compound) ([7]; time 2 h): 79.26 ± 0.34%; Stability (% unmodified compound) ([7]; time 4 h): 64.90 ± 1.21%; Stability (% unmodified compound) ([7]; time 6 h): 56.13 ± 2.72%; half-life [7]: 10.7 h |

— publication PMC12195707, “Evaluation of Antitumoral Activity in a 3D Cell Model of a Src Inhibitor Prodrug for Glioblastoma Treatment” (Pharmaceutics, 2025)
